Laboratory results: ChEMBL document CHEMBL5523681, “Lysosome-targeted Aza-BODIPY photosensitizers for anti-cancer photodynamic therapy” (Bioorg Med Chem, 2024)

test system: not listed separately; assay: Stability of compound in emulsified PBS buffer under dark condition; assay type: physicochemical; conditions: not given

Row | Structure (SMILES) | Stability
1 | CCN(CC)Cc1ccc(C2=C(Br)C(c3ccc(OC)cc3)=[N+]3C2=Nc2c(-c4ccc(CN(CC)CC)cc4)c(Br)c(-c4ccc(OC)cc4)n2[B-]3(F)F)cc1 | Unstable

test system: not listed separately; assay: Dark toxicity in human HeLa cells incubated for 3 hrs by CCK-8 assay; assay type: cell-based; conditions: not given

Row | Structure (SMILES) | IC50 at 3 h
2 | CCN(CC)Cc1ccc(C2=C(Br)C(c3ccc(OC)cc3)=[N+]3C2=Nc2c(-c4ccc(CN(CC)CC)cc4)c(Br)c(-c4ccc(OC)cc4)n2[B-]3(F)F)cc1 | 22000 nM

test system: HeLa; assay: Cytotoxicity against human HeLa cells preincubated with compound for 3 hrs followed by 81 J/cm2 light irradiation and measured after 24 hrs by CCK8 assay; assay type: functional, cell-based; conditions: light or radiation study

Row | Structure (SMILES) | IC50
3 | CCN(CC)Cc1ccc(C2=C(Br)C(c3ccc(OC)cc3)=[N+]3C2=Nc2c(-c4ccc(CN(CC)CC)cc4)c(Br)c(-c4ccc(OC)cc4)n2[B-]3(F)F)cc1 | 44.9 nM

test system: not listed separately; assay: Ratio of singlet oxygen quantum yield in DMF at pH 5.2 in presence of HCl to singlet oxygen quantum yield in DMF at pH 7; assay type: functional; conditions: not given

Row | Structure (SMILES) | Ratio
4 | CCN(CC)Cc1ccc(C2=C(Br)C(c3ccc(OC)cc3)=[N+]3C2=Nc2c(-c4ccc(CN(CC)CC)cc4)c(Br)c(-c4ccc(OC)cc4)n2[B-]3(F)F)cc1 | 2.6

test system: not listed separately; assay: Stability of compound in CH3CN under dark condition; assay type: physicochemical; conditions: not given

Row | Structure (SMILES) | Stability
5 | CCN(CC)Cc1ccc(C2=C(Br)C(c3ccc(OC)cc3)=[N+]3C2=Nc2c(-c4ccc(CN(CC)CC)cc4)c(Br)c(-c4ccc(OC)cc4)n2[B-]3(F)F)cc1 | Unstable

test system: HepG2; assay: Cytotoxicity against human HepG2 cells preincubated with compound for 3 hrs followed by 81 J/cm2 light irradiation and measured after 24 hrs by CCK8 assay; assay type: functional, cell-based; conditions: HepG2, light or radiation study

Row | Structure (SMILES) | IC50
6 | CCN(CC)Cc1ccc(C2=C(Br)C(c3ccc(OC)cc3)=[N+]3C2=Nc2c(-c4ccc(CN(CC)CC)cc4)c(Br)c(-c4ccc(OC)cc4)n2[B-]3(F)F)cc1 | 70.6 nM

test system: not listed separately; assay: Photosensitizing ability of the compound in PBS at pH 7.4 assessed as singlet oxygen production by measuring relative degradation rate of DPBF at 411 nm under photoirradiation with 90 mW/cm2 light by absorbance based assay; assay type: functional; conditions: not given

Row | Structure (SMILES) | Activity
7 | CCN(CC)Cc1ccc(C2=C(Br)C(c3ccc(OC)cc3)=[N+]3C2=Nc2c(-c4ccc(CN(CC)CC)cc4)c(Br)c(-c4ccc(OC)cc4)n2[B-]3(F)F)cc1 | 1.06

test system: not listed separately; assay: Photosensitizing ability of the compound in DMF at pH 7 assessed as singlet oxygen quantum yield; assay type: functional; conditions: not given

Row | Structure (SMILES) | Activity
8 | CCN(CC)Cc1ccc(C2=C(Br)C(c3ccc(OC)cc3)=[N+]3C2=Nc2c(-c4ccc(CN(CC)CC)cc4)c(Br)c(-c4ccc(OC)cc4)n2[B-]3(F)F)cc1 | 0.25

test system: not listed separately; assay: Photostability of compound in emulsified PBS buffer in presence of […] light irradiation measured upto 10 mins by absorption based assay; assay type: physicochemical; conditions: not given

Row | Structure (SMILES) | Stability
9 | CCN(CC)Cc1ccc(C2=C(Br)C(c3ccc(OC)cc3)=[N+]3C2=Nc2c(-c4ccc(CN(CC)CC)cc4)c(Br)c(-c4ccc(OC)cc4)n2[B-]3(F)F)cc1 | Unstable

test system: B16-F10; assay: Cytotoxicity against mouse B16-F10 cells preincubated with compound for 3 hrs followed by 81 J/cm2 light irradiation and measured after 24 hrs by CCK8 assay; assay type: functional, cell-based; conditions: B16-F10, light or radiation study

Row | Structure (SMILES) | IC50
10 | CCN(CC)Cc1ccc(C2=C(Br)C(c3ccc(OC)cc3)=[N+]3C2=Nc2c(-c4ccc(CN(CC)CC)cc4)c(Br)c(-c4ccc(OC)cc4)n2[B-]3(F)F)cc1 | 20.8 nM

test system: not listed separately; assay: Dark toxicity in human HepG2 cells incubated for 3 hrs by CCK-8 assay; assay type: cell-based; conditions: not given

Row | Structure (SMILES) | IC50 at 3 h
11 | CCN(CC)Cc1ccc(C2=C(Br)C(c3ccc(OC)cc3)=[N+]3C2=Nc2c(-c4ccc(CN(CC)CC)cc4)c(Br)c(-c4ccc(OC)cc4)n2[B-]3(F)F)cc1 | 23500 nM

test system: not listed separately; assay: Photosensitizing ability of the compound in DMF at pH 5.2 assessed as singlet oxygen quantum yield in presence of HCl; assay type: functional; conditions: not given

Row | Structure (SMILES) | Activity
12 | CCN(CC)Cc1ccc(C2=C(Br)C(c3ccc(OC)cc3)=[N+]3C2=Nc2c(-c4ccc(CN(CC)CC)cc4)c(Br)c(-c4ccc(OC)cc4)n2[B-]3(F)F)cc1 | 0.65

test system: not listed separately; assay: Ratio of relative degradation rate of DPBF in PBS at pH 5.2 in presence of HCl to relative degradation rate of DPBF in PBS at pH 7; assay type: physicochemical; conditions: buffer

Row | Structure (SMILES) | Ratio
13 | CCN(CC)Cc1ccc(C2=C(Br)C(c3ccc(OC)cc3)=[N+]3C2=Nc2c(-c4ccc(CN(CC)CC)cc4)c(Br)c(-c4ccc(OC)cc4)n2[B-]3(F)F)cc1 | 1.08

test system: not listed separately; assay: Photosensitizing ability of the compound in PBS at pH 5.2 in presence of HCl assessed as singlet oxygen production by measuring relative degradation rate of DPBF at 411 nm under photoirradiation with 90 mW/cm2 light by absorbance based assay; assay type: functional; conditions: not given

Row | Structure (SMILES) | Activity
14 | CCN(CC)Cc1ccc(C2=C(Br)C(c3ccc(OC)cc3)=[N+]3C2=Nc2c(-c4ccc(CN(CC)CC)cc4)c(Br)c(-c4ccc(OC)cc4)n2[B-]3(F)F)cc1 | 1.15

test system: not listed separately; assay: Dark toxicity in mouse B16-F10 cells incubated for 3 hrs by CCK-8 assay; assay type: cell-based; conditions: not given

Row | Structure (SMILES) | IC50 at 3 h
15 | CCN(CC)Cc1ccc(C2=C(Br)C(c3ccc(OC)cc3)=[N+]3C2=Nc2c(-c4ccc(CN(CC)CC)cc4)c(Br)c(-c4ccc(OC)cc4)n2[B-]3(F)F)cc1 | 33100 nM

test system: MRC5; assay: Cytotoxicity against human MRC5 cells in presence of 16 J/cm^2 light irradiation; assay type: functional, cell-based; conditions: MRC5, light or radiation study

Row | Structure (SMILES) | EC50
16 | CCN(CC)Cc1ccc(C2=C(Br)C(c3ccc(OC)cc3)=[N+]3C2=Nc2c(-c4ccc(CN(CC)CC)cc4)c(Br)c(-c4ccc(OC)cc4)n2[B-]3(F)F)cc1 | 5.8 nM

test system: not listed separately; assay: Stability of compound in DMF under dark condition; assay type: physicochemical; conditions: not given

Row | Structure (SMILES) | Stability
17 | CCN(CC)Cc1ccc(C2=C(Br)C(c3ccc(OC)cc3)=[N+]3C2=Nc2c(-c4ccc(CN(CC)CC)cc4)c(Br)c(-c4ccc(OC)cc4)n2[B-]3(F)F)cc1 | Unstable
